Measured values: article PMC8686256, “DZNep promotes mouse bone defect healing via enhancing both osteogenesis and osteoclastogenesis” (Stem Cell Research & Therapy, 2021)

What was measured:
[1] = tested on: osteoclast-related genes in BMMs; experiment: qPCR of osteoclast-related genes in BMMs; format: cell-based, mouse
Experimental: BMMs were cultured in 6-well plates at the density of 2 × 10^5 cells/well in α-MEM supplemented with M-CSF (30 ng/ml), RANKL (50 ng/ml). The cells were then treated with or without 25 nM DZNep for 0, 1, 3, 5 days, or with various concentrations of DZNEP (0, 6.25, 25 nM) for 5 days, or with negative control siRNA, negative control siRNA with DZNep, and Foxc1 small interfering RNA (siRNA) with DZNep for 5 days. Once the culture completed, the Axygen RNA Miniprep Kit (Axygen, Union City, CA, USA) was used to extract the total RNA. BMSC were seeded in a 6-well plate at a number of 4 × 10^5 cells/well and treated with 0, 25, 50, 100 nM of DZNep combined with osteoblast-cultured medium for 24 h, or with or without 100 nM DZNep combined with osteoblast-cultured medium for 0 and 7 days, or with negative control siRNA, negative control siRNA with DZNep, and Wnt4 small interfering RNA (siRNA) with DZNep combined with osteoblast-cultured medium for 7 days. Once the culture completed, the Axygen RNA Miniprep Kit (Axygen, Union City, CA, USA) was used to extract the total RNA. After reverse transcription to obtain cDNA from the RNA template by using the Prime Script RT reagent Kit was finished. The real-time PCR assay was subsequently performed by using the SYBR® Premix Ex Taq™ II on an ABI 7500 Sequencing Detection System (Applied Biosystems, Foster City, CA). Specifically, total volume of 10 μl liquid consisted by 5 μl of SYBR® Premix Ex Taq™ II, 1 μl of diluted cDNA, 0.4 μl of mixed forward and reverse primer, and 3.6 μl of ddH2O was added into each hole of 384 PCR plate. Conditions of the 40 cycles were: 95 °C for 5 s and 60 °C for 30 s. The melting curves and reverse transcription PCR (RT-PCR) were the methods to detect the specificity of amplification product. Each target’s quantity, run in triplicate, was normalized to Actin Beta (Actb). […]

MAPKs signaling pathways = experiment: Western blotting of MAPKs signaling pathways; format: cell-based, mouse; details: RAW264.7, 25 nM pretreatment, vs control
Experimental: To explore the variation of the proteins on long-term activated signaling, BMMs were cultured in α-MEM containing M-CSF (30 ng/ml) and RANKL (50 ng/ml) at a density of 2 × 10^5 cells/well on 6-well plates. After 24 h, the BMMs were treated with or without 25 nM DZNep for 0, 1, 3, and 5 days, and total protein was obtained, respectively, on these specific time points. To determine the effect of DZNep on the protein of short-time activated phosphorylated, RAW264.7 cells were cultured in α-MEM at a density of 5 × 10^5 cells/well on 6-well plates. One day later, the cells were treated with the serum-free α-MEM in the presence or absence of DZNEP for 3 hand then stimulated with 50 ng/mL RANKL for 0, 10, 20, 30, and 60 min. To determine the efficiency of EZH2 shRna, BMMs were cultured in α-MEM at a density of 5 × 10^5 cells/well on 6-well plates. One day later, the cells were treated with negative control shRNA or different EZH2 shRNA for 2 days. To determine the efficiency of Foxc1 siRna, BMMs were cultured in α-MEM at a density of 5 × 10^5 cells/well on 6-well plates. […] After TBST wash for 3 times, the secondary fluorescence antibodies were incubated without light for 1 h at room temperature and the reactivity was visualized by using Odyssey V3.0 image scanning (Li-COR. Inc., Lincoln, NE, USA). […]

Nc1nccc2c1ncn2C1C=C(CO)C(O)C1O (stereo not shown) [DZNep, 3-Deazaneplanocin]
expression of Trap, Ctsk, Atp6v0d2 (qPCR) ([1]; 25 nM, 0, 1, 3, 5 days): significantly enhanced in a time-dependent manner
mRNA expression of Foxc1 in BMMs ([1]; RANKL and DZNep treatment for 5 days): upregulated
expression of Calcr, c-FOS, Nfatc1, Trap, Ctsk, Atp6v0d2 (qPCR) ([1]; indicated DZNep concentrations, 5 days): upregulated in a dose-dependent manner
phosphorylation of JNK, p38, and ERK (MAPKs signaling pathways): comparable
